According to paper PMC4744035, “In Vivo, In Vitro, and In Silico Characterization of Peptoids as Antimicrobial Agents” (PLoS ONE, 2016):
Values after ≈ are worked out from the molar mass of the structure shown. Where two headings read alike, the source gives them in different places. Square brackets hold non-standard residues; d marks the D form. Ends that are not written are not given here. Peptide text beside a SMILES is read from it. Nspe = C[C@H](NCC(=O)O)c1ccccc1; Nphe = O=C(O)CNCc1ccccc1; Nlys = NCCCCNCC(=O)O

How the values were obtained:
LPS (P. aeruginosa) [1] = test system: LPS (P. aeruginosa); design: method as in PMID 8702613; conditions: divalent cation; read-out: I50 (affinity for LPS); cited from earlier work
B. subtilis ATCC 6633 = format: cell-based
In short: (§1)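 MICs determined by 2:1 serial broth microdilution in cation-adjusted Mueller-Hinton broth per CLSI M7-A6, using inoculum at 1 x 10^6 CFU/mL mixed 1:1 with peptoid solution. Three independent replicates, each with two parallel trials.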

E. coli ATCC 35218 = format: cell-based
In short: as §1

erythrocytes = test: Hemolytic activity (HD10/HD50); format: cell-based
Description: Table 1 Characteristics of antimicrobial peptoids, screened for activity against B. subtilis and E. coli bacterial strains. | column: HD10 / HD50

NIH 3T3 cells = test: Metabolic activity, MTS assay; format: cell-based, mouse
In short: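 Mouse NIH 3T3 fibroblast monolayers, about 5000 cells per well, washed and exposed to serially diluted peptoids in Hank's balanced salt solution. Metabolic activity read by MTS; average of six replicate trials.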

[2] = test system: E. cloacae 218R Class C β-lactamase; test: microbe, parasite or virus in culture; conditions: 218R Class C β-lactamase
In short: (§2)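 Clinical and lab strains were tested by modified broth microdilution in Mueller Hinton medium at 2–7 x 10^5 CFU/mL.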

E. coli 63103 (ESBL) = test: microbe, parasite or virus in culture; conditions: 63103 (ESBL)
In short: as §2

E. coli 64771 (ESBL) = test: microbe, parasite or virus in culture; conditions: 64771 (ESBL)
In short: as §2

E. faecalis ATCC29212 = test: microbe, parasite or virus in culture; conditions: ATCC29212
In short: as §2

E. faecalis F43559 (VRE) = test: microbe, parasite or virus in culture; conditions: F43559 (VRE)
In short: as §2

E. faecalis W61950 (VRE) = test: microbe, parasite or virus in culture; conditions: W61950 (VRE)
In short: as §2

E. faecium T62764 (VRE) = test: microbe, parasite or virus in culture; conditions: T62764 (VRE)
In short: as §2

E. faecium mic80 (VRE) = test: microbe, parasite or virus in culture; conditions: mic80 (VRE)
In short: as §2

[3] = test system: K. pneumonia 61962 (ESBL); test: microbe, parasite or virus in culture
In short: as §2

[4] = test system: K. pneumonia 63575 (ESBL); test: microbe, parasite or virus in culture
In short: as §2

P. aeruginosa 198 (MDR) = test: microbe, parasite or virus in culture; conditions: 198 (MDR)
In short: as §2

P. aeruginosa 213 (MDR) = test: microbe, parasite or virus in culture; conditions: 213 (MDR)
In short: as §2

P. aeruginosa 9 (MDR) = test: microbe, parasite or virus in culture; conditions: 9 (MDR)
In short: as §2

[5] = test system: P. aeruginosa H1027 (MDR); test: microbe, parasite or virus in culture; conditions: H1027 (MDR)
In short: as §2

[6] = test system: P. aeruginosa H103 (wild type); test: microbe, parasite or virus in culture; conditions: H103 (wild type)
In short: as §2

[7] = test system: P. aeruginosa H1030 (MDR); test: microbe, parasite or virus in culture; conditions: P. aeruginosa H1030 (MDR)
In short: as §2

[8] = test system: P. aeruginosa LES400 (MDR); test: microbe, parasite or virus in culture; conditions: LES400 (MDR)
In short: as §2

P. maltophilia ATCC13637 = test: microbe, parasite or virus in culture; conditions: ATCC13637
In short: as §2

S. aureus ATCC25923 = test: microbe, parasite or virus in culture; conditions: ATCC25923
In short: as §2

S. aureus C623 (MRSA) = test: microbe, parasite or virus in culture; conditions: C623
In short: as §2

LPS (P. aeruginosa) [9] = test: Dansyl polymyxin B (DPX) displacement assay, LPS binding; conditions: DPX bound to P. aeruginosa LPS
Procedure: The Dansyl polymyxin B (DPX) displacement assay was carried out as described earlier. In brief, the fluorescence of DPX (Invitrogen) bound to LPS (P. aeruginosa) was measured by using a Luminescence spectrometer LS 50B (Perkin Elmer) with excitation and emission-wavelengths of 340 nm and 485 nm, respectively. A predetermined amount of DPX, resulting in 90% saturation of LPS, was added to 1 mL of 3 μg/mL of purified LPS. Small aliquots (5 μL of 1 μg/mL) of test compounds were added under constant stirring in the cuvette, and the displacement of DPX was measured for 30–60 seconds as a decrease in fluorescence. The process was repeated until maximum displacement was reached.
The ability of other cationic molecules to displace DPX molecules bound to LPS (monitored by reduction in fluorescence) assesses their relative ability to bind to LPS [33, 34]. While the highly cationic MSI-78 (+10 charge) displaced 100% of bound DPX (equivalent to that of polymyxin B), peptoid 1 and MX-226 displaced 71% and 73% of bound DPX, respectively. […] A second parameter characterizing the LPS/polycation interaction is the I50, which is defined as the concentration of a polycation that displaces 50% of LPS-bound DPX. The I50 is inversely related to the relative affinity of each molecule for binding sites on LPS.

[10] = test system: 20 bacterial strains (13 Gram-negative, 7 Gram-positive)
Procedure: The MICs of test agents were measured using a modified broth micro-dilution method in Difco Mueller Hinton medium, on a panel of bacterial pathogens that were both susceptible and resistant to common antibiotics (S1 File). Briefly, serial dilutions were performed in 0.01% acetic acid containing 0.2% bovine serum albumin at 10-fold the desired final concentration. Ten μL of the 10-fold concentrated test reagents were added to each well of a 96-well polypropylene microtitre plate containing 90 μL of Mueller Hinton media per well. Bacteria were added to the plate from an overnight culture at a final concentration of 2–7 x 10^5 CFU/mL and incubated overnight at 37°C. The MIC is defined as the concentration at which no growth was observed.
Screening of peptoid antimicrobial activity against a panel of multidrug resistant superbugs was done according to the protocol described in the manuscript. The bacterial strains used in this panel included; P. aeruginosa PAO1 strain H103 [1], P. maltophilia ATCC#13637, S. aureus ATCC#25923 [1], E. faecalis ATCC#29212 [2], and E. cloacae 218R, constitutively expressing Class C chromosomal β-lactamase, were from the Hancock lab strains collection. An MRSA clinical isolate was kindly provided by Anthony Chow (Vancouver General Hospital, Vancouver, Canada). Two Klebsiella pneumoniae and two E. coli clinical isolates expressing extended spectrum β-lactamases (ESBL) were kindly provided by George Zhanel (Health Sciences Centre, Winnipeg, Canada). Vancomycin-resistant clinical isolates of Enterococcus faecalis and E. faecium were obtained from Ana M. Paccagnella (BC Centre for Disease Control, Vancouver, Canada). Three clinical isolates (#9, #198 and #213) of multi-drug resistant P. aeruginosa, were kindly provided by Carlos Kiffer (University of São Paulo, Brazil). […] Three P. aeruginosa clinical isolates of the Liverpool epidemic strain (LES) (H1027, H1030 and LES400) were all kindly provided by Craig Winstanley (University of Liverpool, UK). […] All tested bacterial strains were categorized as biohazard level 2 pathogens.

[11] = test system: diabetic foot ulcer infection; design: method as in PMID 18310135; conditions: Phase III, diabetic foot ulcers; cited from earlier work
[12] = test system: bowel perforation and sepsis; design: method as in PMID 15294887; conditions: cited from earlier work

Molecule	MIC [2] [µg/mL]	MIC (E. coli 63103 (ESBL)) [µg/mL]	MIC (E. coli 64771 (ESBL)) [µg/mL]	MIC (E. faecalis ATCC29212) [µg/mL]	MIC (E. faecalis F43559 (VRE)) [µg/mL]	MIC (E. faecalis W61950 (VRE)) [µg/mL]	MIC (E. faecium T62764 (VRE)) [µg/mL]	MIC (E. faecium mic80 (VRE)) [µg/mL]	MIC [3] [µg/mL]	MIC [4] [µg/mL]	MIC (P. aeruginosa 198 (MDR)) [µg/mL]	MIC (P. aeruginosa 213 (MDR)) [µg/mL]	MIC (P. aeruginosa 9 (MDR)) [µg/mL]	MIC [5] [µg/mL]	MIC [6] [µg/mL]	MIC [8] [µg/mL]	MIC (P. maltophilia ATCC13637) [µg/mL]	MIC (S. aureus ATCC25923) [µg/mL]	MIC (S. aureus C623 (MRSA)) [µg/mL]	other results
[Mg+2] [Mg^2+]	–	–	–	–	–	–	–	–	–	–	–	–	–	–	–	–	–	–	–	IC50 (LPS (P. aeruginosa) [1]): 620 µM
C[C@@H](c1ccccc1)N(CC(=O)N(CC(=O)N(CCCCN)CC(=O)N(CC(=O)N(CC(=O)N(CCCCN)CC(=O)N(CC(=O)N(CC(=O)N(CCCCN)CC(=O)N(CC(=O)N(CC(N)=O)Cc1ccccc1)Cc1ccccc1)Cc1ccccc1)Cc1ccccc1)Cc1ccccc1)Cc1ccccc1)Cc1ccccc1)C(=O)CNCCCCN [Peptoid 1ach-Nspe2, H-(NLys-Nspe-Npm)- (NLys-Npm-Npm)3-NH2] (H-[Nlys][Nspe][Nphe][Nlys][Nphe][Nphe][Nlys][Nphe][Nphe][Nlys][Nphe][Nphe]-NH2)	16 (≈ 9.3 µM)	16 (≈ 9.3 µM)	8 (≈ 4.65 µM)	16 (≈ 9.3 µM)	16 (≈ 9.3 µM)	32 (≈ 18.6 µM)	2 (≈ 1.16 µM)	4 (≈ 2.32 µM)	64 (≈ 37.2 µM)	32 (≈ 18.6 µM)	8 (≈ 4.65 µM)	8 (≈ 4.65 µM)	64 (≈ 37.2 µM)	2 (≈ 1.16 µM)	4 (≈ 2.32 µM)	4 (≈ 2.32 µM)	2 (≈ 1.16 µM)	4 (≈ 2.32 µM)	4 (≈ 2.32 µM)	MIC B. subtilis (B. subtilis ATCC 6633): 0.78 µM (≈ 1.34 µg/mL); MIC E. coli (E. coli ATCC 35218): 6.3 µM (≈ 10.8 µg/mL); HD10 (hemolytic activity) (erythrocytes): 160; HD50 (hemolytic activity) (erythrocytes): > 200; ID50 (inhibitory dose, metabolic activity) (NIH 3T3 cells): 11 µM; MIC [7]: 32 µg/mL (≈ 18.6 µM)
GIGKFLKKAKKFGKAFVKILKK-NH2 (C-terminus assumed) [MSI-78, pexiganan, reference compound]	2	16	2	16	16	256	8	4	32	8	4	8	16	2	1	4	2	64	16	bound DPX displaced (maximum displacement) (LPS (P. aeruginosa) [9]): 100%; IC50 (LPS (P. aeruginosa) [9]; read-out: I50 (concentration that displaces 50% of LPS-bound DPX)): 1.4 µM; MICs, range against all Gram-positive strains tested [10]: 4 to 256 µg/mL; median MIC against all Gram-positive strains tested [10]: 16 µg/mL; patients in whom infection was eliminated or significantly reduced [11]: over 90%; endotoxin plasma levels ([12]; rat model of sepsis): reduce endotoxin plasma levels; reduction of bacterial counts ([12]; rat, caecal ligation and puncture model): four orders of magnitude
